Key:
Type in all cases: cell-based
[1] = system: KELLY cells; experiment: Primary functional miRNA mimic screen, CellTiter-Glo cell viability; conditions: miRNA mimic 25 nM alone, 144 hours post-transfection
Excerpt: Breast cancer cell lines (MDA-MB-231, MDA-MB-468, SK-BR-3; BT474) and prostate cancer cell lines (PC3, DU145) were obtained from American Type Culture Collection (ATCC). Neuroblastoma cell lines (KELLY, SHEP) were received from Children's Cancer Institute (CCIA). The KELLY cells were selected as a MYCN amplified neuroblastoma cell line and the SHEP cells were selected as a MYCN wild-type neuroblastoma cell line. All breast and prostate cancer cell lines were cultivated in RPMI media supplemented with 10% FCS, HEPES, and insulin. […] Each of the cell lines were reverse transfected in 384-well plate format with 25 nM of a miRNA from the Dharmacon miRNA mimic or inhibitor libraries (version 16.0) using liquid-handling robot Calliper Sciclone ALH3000 according to the conditions described in Table 3. […] Luminescence measurements were taken on the Synergy H4 high-throughput multimode microplate reader. All screens were performed in duplicates. Raw viability was normalised to a nontargeting control (OTP) or mock wells, and death genes or controls inducing varying levels of death were used to monitor transfection efficiency and to define dynamic range in each screen (FIG. 1). To define screen hits, normalised viability scores were binned in the following manner: CV1 bin included candidates with viability >=0.8; […] Only LC candidates were defined as screen hits.

[2] = system: KELLY cells; experiment: Secondary validation screen of lethal miRNAs, cell viability; conditions: miRNA mimic alone
Procedure: (§1) Each of the cell lines were reverse transfected in 384-well plate format with 25 nM of a miRNA from the Dharmacon miRNA mimic or inhibitor libraries (version 16.0) using liquid-handling robot Calliper Sciclone ALH3000 according to the conditions described in Table 3. After 24 hours, media was changed using BioTek 406, and 144 hours post-transfection, cell viability was determined using CellTiter-Glo luminescent assay (Promega) at 1:2 dilution. Luminescence measurements were taken on the Synergy H4 high-throughput multimode microplate reader. All screens were performed in duplicates.
(§2) The secondary validation screens were performed in accordance with the genome-wide screens described in Example 1 and Example 2, respectively, with the exception that an additional MYCN-amplified neuroblastoma cell line (SK-N-DZ) was added to each screen.
(§3) Furthermore, five additional non-active miRNAs discovered to have no measureable effect across all treatment groups of the genome-wide screen (‘non-lethal’ miRNAs) were included as negative controls.

[3] = system: SHEP cells; experiment: as above; conditions: miRNA mimic alone
Procedure: as §1, §2, §3

[4] = system: SHEP cells; experiment: Primary functional miRNA mimic screen, CellTiter-Glo cell viability; conditions: miRNA mimic 25 nM alone, 144 hours post-transfection
Excerpt: Breast cancer cell lines (MDA-MB-231, MDA-MB-468, SK-BR-3; BT474) and prostate cancer cell lines (PC3, DU145) were obtained from American Type Culture Collection (ATCC). Neuroblastoma cell lines (KELLY, SHEP) were received from Children's Cancer Institute (CCIA). The KELLY cells were selected as a MYCN amplified neuroblastoma cell line and the SHEP cells were selected as a MYCN wild-type neuroblastoma cell line.
All breast and prostate cancer cell lines were cultivated in RPMI media supplemented with 10% FCS, HEPES, and insulin. The neuroblastoma cell lines, KELLY, SHEP, were grown in 10% FCS/RPMI and 10% FCS/DMEM, respectively.
as §1
Raw viability was normalised to a nontargeting control (OTP) or mock wells, and death genes or controls inducing varying levels of death were used to monitor transfection efficiency and to define dynamic range in each screen (FIG. 1). To define screen hits, normalised viability scores were binned in the following manner: CV1 bin included candidates with viability >=0.8; CV2 bin included candidates with viability <0.8 and >0.5, and LC bin was assigned to candidates with normalised viability <=0.5. Only LC candidates were defined as screen hits.

[5] = system: RGS16 mRNA; experiment: qPCR of target mRNA in KELLY cells transfected with miRNA mimic; conditions: 25 nM mimic, 96 h after transfection
Procedure: (§4) KELLY cells were transfected with let-7b-5p, miR-101-3p, and miR-202-3p mimics and real-time PCR performed to determine any changes in mRNA expression levels of HAND1, RGS16, RBFOX2, and ACVR2B. Briefly, KELLY cells were grown in 10% FCS/RPMI and transfected with 25 nM of let-7b-5p, miR-101-3p or miR-202-3p mimic using Dharmafect 1 (DF1) transfection reagent. 96 h after transfection, the cells were harvested and total RNA was extracted using miRneasy kit (Qiagen). RNA was then subjected to reverse transcription to generate cDNA. Quantification of gene expression was then performed using qPCR and Taqman probes and primers for HAND1, RGS 16, RBFOX2, and ACVR2B. The levels of gene expression for HAND1, RGS16, RBFOX2, and ACVR2B were normalised to the housekeeping genes B2M and GAPDH

[6] = system: RBFOX2 mRNA; experiment: as above; conditions: 25 nM mimic, 96 h after transfection
Procedure: as §4

[7] = system: SK-N-DZ MYCN-amplified neuroblastoma cell line; experiment: Secondary validation screen of lethal miRNAs, additional cell line, cell viability; conditions: miRNA mimic alone
Procedure: as §1, §2, §3

hsa-miR-101-3p (UACAGUACUGUGAUAACUGAA; chemistry not given here; listed as Homo sapiens)
Primary screen Viability (% of control) KELLY [1]: 6 % of control
Secondary screen Viability (% of control) KELLY [2]: 7 % of control
Secondary screen Viability (% of control) SHEP [3]: 69 % of control
Primary screen Viability (% of control) SHEP [4]: 58 % of control
RGS16 mRNA levels [5]: did not affect
RBFOX2 mRNA levels [6]: did not affect
Additional cell line Viability (% of control) SKNDZ [7]: 72 % of control

hsa-miR-489 (guide GUGACAUCACAUAUACGGCAGC; chemistry not given here; listed as Homo sapiens)
Primary screen Viability (% of control) KELLY [1]: 5 % of control
Secondary screen Viability (% of control) KELLY [2]: 4 % of control
Secondary screen Viability (% of control) SHEP [3]: 43 % of control
Primary screen Viability (% of control) SHEP [4]: 40 % of control
Additional cell line Viability (% of control) SKNDZ [7]: 33 % of control

hsa-miR-491-3p (guide CUUAUGCAAGAUUCCCUUCUAC; chemistry not given here; listed as Homo sapiens)
Primary screen Viability (% of control) KELLY [1]: 12 % of control
Secondary screen Viability (% of control) KELLY [2]: 12 % of control
Secondary screen Viability (% of control) SHEP [3]: 34 % of control
Primary screen Viability (% of control) SHEP [4]: 26 % of control
Additional cell line Viability (% of control) SKNDZ [7]: 47 % of control

hsa-miR-517c-3p (guide AUCGUGCAUCCUUUUAGAGUGU; chemistry not given here; listed as Homo sapiens)
Primary screen Viability (% of control) KELLY [1]: 26 % of control
Secondary screen Viability (% of control) KELLY [2]: 27 % of control
Secondary screen Viability (% of control) SHEP [3]: 43 % of control
Primary screen Viability (% of control) SHEP [4]: 40 % of control
Additional cell line Viability (% of control) SKNDZ [7]: 21 % of control

hsa-miR-542-3p (guide UGUGACAGAUUGAUAACUGAAA; chemistry not given here; listed as Homo sapiens)
Primary screen Viability (% of control) KELLY [1]: 6 % of control
Secondary screen Viability (% of control) KELLY [2]: 20 % of control
Secondary screen Viability (% of control) SHEP [3]: 38 % of control
Primary screen Viability (% of control) SHEP [4]: 29 % of control
Additional cell line Viability (% of control) SKNDZ [7]: 28 % of control

hsa-miR-544a (guide AUUCUGCAUUUUUAGCAAGUUC; chemistry not given here; listed as Homo sapiens)
Primary screen Viability (% of control) KELLY [1]: 7 % of control
Secondary screen Viability (% of control) KELLY [2]: 17 % of control
Secondary screen Viability (% of control) SHEP [3]: 61 % of control
Primary screen Viability (% of control) SHEP [4]: 32 % of control
Additional cell line Viability (% of control) SKNDZ [7]: 59 % of control

hsa-miR-550a-3p (guide UGUCUUACUCCCUCAGGCACAU; chemistry not given here; listed as Homo sapiens)
Primary screen Viability (% of control) KELLY [1]: 4 % of control
Secondary screen Viability (% of control) KELLY [2]: 15 % of control
Secondary screen Viability (% of control) SHEP [3]: 94 % of control
Primary screen Viability (% of control) SHEP [4]: 61 % of control
Additional cell line Viability (% of control) SKNDZ [7]: 82 % of control

hsa-miR-552 (guide AACAGGUGACUGGUUAGACAA; chemistry not given here; listed as Homo sapiens)
Primary screen Viability (% of control) KELLY [1]: 2 % of control
Secondary screen Viability (% of control) KELLY [2]: 2 % of control
Secondary screen Viability (% of control) SHEP [3]: 47 % of control
Primary screen Viability (% of control) SHEP [4]: 36 % of control
Additional cell line Viability (% of control) SKNDZ [7]: 36 % of control

hsa-miR-634 (guide AACCAGCACCCCAACUUUGGAC; chemistry not given here; listed as Homo sapiens)
Primary screen Viability (% of control) KELLY [1]: 7 % of control
Secondary screen Viability (% of control) KELLY [2]: 13 % of control
Secondary screen Viability (% of control) SHEP [3]: 12 % of control
Primary screen Viability (% of control) SHEP [4]: 8 % of control
Additional cell line Viability (% of control) SKNDZ [7]: 41 % of control

hsa-miR-654-5p (guide UGGUGGGCCGCAGAACAUGUGC; chemistry not given here; listed as Homo sapiens)
Primary screen Viability (% of control) KELLY [1]: 6 % of control
Secondary screen Viability (% of control) KELLY [2]: 7 % of control
Secondary screen Viability (% of control) SHEP [3]: 45 % of control
Primary screen Viability (% of control) SHEP [4]: 30 % of control
Additional cell line Viability (% of control) SKNDZ [7]: 28 % of control

hsa-miR-876-3p (guide UGGUGGUUUACAAAGUAAUUCA; chemistry not given here; listed as Homo sapiens)
Primary screen Viability (% of control) KELLY [1]: 6 % of control
Secondary screen Viability (% of control) KELLY [2]: 6 % of control
Secondary screen Viability (% of control) SHEP [3]: 51 % of control
Primary screen Viability (% of control) SHEP [4]: 94 % of control
Additional cell line Viability (% of control) SKNDZ [7]: 48 % of control

hsa-miR-892b (guide CACUGGCUCCUUUCUGGGUAGA; chemistry not given here; listed as Homo sapiens)
Primary screen Viability (% of control) KELLY [1]: 5 % of control
Secondary screen Viability (% of control) KELLY [2]: 3 % of control
Secondary screen Viability (% of control) SHEP [3]: 34 % of control
Primary screen Viability (% of control) SHEP [4]: 30 % of control
Additional cell line Viability (% of control) SKNDZ [7]: 54 % of control

hsa-miR-1231 (GUGUCUGGGCGGACAGCUGC; chemistry not given here; listed as Homo sapiens)
Primary screen Viability (% of control) KELLY [1]: 36 % of control
Secondary screen Viability (% of control) KELLY [2]: 48 % of control
Secondary screen Viability (% of control) SHEP [3]: 46 % of control
Primary screen Viability (% of control) SHEP [4]: 15 % of control
Additional cell line Viability (% of control) SKNDZ [7]: 98 % of control

hsa-miR-1262 (AUGGGUGAAUUUGUAGAAGGAU; chemistry not given here; listed as Homo sapiens)
Primary screen Viability (% of control) KELLY [1]: 8 % of control
Secondary screen Viability (% of control) KELLY [2]: 8 % of control
Secondary screen Viability (% of control) SHEP [3]: 42 % of control
Primary screen Viability (% of control) SHEP [4]: 31 % of control
Additional cell line Viability (% of control) SKNDZ [7]: 13 % of control
